Results reported in paper PMC10457369, “Novel VEGFR2 inhibitors with thiazoloquinoxaline scaffold targeting hepatocellular carcinoma with lower cardiotoxic impact” (Scientific Reports, 2023).
Where two headings read alike, the source gives them in different places.

Legend:
VEGFR-2 = target: T1, VEGFR-2 (Homo sapiens, UniProt P35968); assay: In-vitro VEGFR-2 kinase assay (BPS Bioscience kit, Kinase-Glo MAX); assay type: biochemical; details: mean ± S.D of three experiments
T1 construct: purchased BPS Bioscience 40325
T1 sequence (P35968 20-1356): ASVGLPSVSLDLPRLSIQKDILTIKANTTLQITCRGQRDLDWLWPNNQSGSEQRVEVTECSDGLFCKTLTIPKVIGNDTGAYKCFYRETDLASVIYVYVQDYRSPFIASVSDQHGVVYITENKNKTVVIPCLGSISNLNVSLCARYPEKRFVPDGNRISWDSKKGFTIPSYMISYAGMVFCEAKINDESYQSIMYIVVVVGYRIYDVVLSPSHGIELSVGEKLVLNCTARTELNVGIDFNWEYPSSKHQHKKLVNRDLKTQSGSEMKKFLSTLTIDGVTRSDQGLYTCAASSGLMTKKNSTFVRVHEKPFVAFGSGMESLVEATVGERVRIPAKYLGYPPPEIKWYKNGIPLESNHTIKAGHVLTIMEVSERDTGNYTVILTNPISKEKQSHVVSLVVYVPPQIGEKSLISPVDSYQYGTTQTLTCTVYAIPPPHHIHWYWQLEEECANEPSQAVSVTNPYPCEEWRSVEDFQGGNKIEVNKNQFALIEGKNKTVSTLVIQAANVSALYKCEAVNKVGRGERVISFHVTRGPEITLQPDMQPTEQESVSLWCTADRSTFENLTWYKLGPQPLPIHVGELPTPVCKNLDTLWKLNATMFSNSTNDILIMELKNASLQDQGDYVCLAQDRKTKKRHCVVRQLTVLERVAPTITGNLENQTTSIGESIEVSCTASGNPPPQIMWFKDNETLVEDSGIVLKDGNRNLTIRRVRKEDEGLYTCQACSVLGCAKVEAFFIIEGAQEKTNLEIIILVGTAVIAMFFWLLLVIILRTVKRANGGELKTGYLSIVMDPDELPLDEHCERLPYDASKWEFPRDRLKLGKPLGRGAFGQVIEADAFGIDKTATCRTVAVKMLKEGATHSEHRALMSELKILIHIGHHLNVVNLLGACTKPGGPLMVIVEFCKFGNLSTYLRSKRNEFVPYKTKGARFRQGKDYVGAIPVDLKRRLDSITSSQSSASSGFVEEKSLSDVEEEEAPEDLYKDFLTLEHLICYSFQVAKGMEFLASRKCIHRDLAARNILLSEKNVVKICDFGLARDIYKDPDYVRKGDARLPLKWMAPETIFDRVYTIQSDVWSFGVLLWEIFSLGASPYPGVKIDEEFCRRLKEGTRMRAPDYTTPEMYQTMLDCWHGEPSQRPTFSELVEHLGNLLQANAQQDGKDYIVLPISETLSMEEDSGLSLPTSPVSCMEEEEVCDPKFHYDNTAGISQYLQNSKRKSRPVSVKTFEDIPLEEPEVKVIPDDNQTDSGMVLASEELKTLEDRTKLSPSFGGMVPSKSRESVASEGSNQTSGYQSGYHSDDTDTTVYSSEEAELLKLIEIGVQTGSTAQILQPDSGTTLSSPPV
Method: The VEGFR-2 Kinase Assay Kit [Catalog no., 40325, BPS Bioscience®, USA] is designed to measure VEGFR-2 kinase activity for screening and profiling applications using Kinase-Glo® MAX as a detection reagent. The VEGFR-2 Kinase Assay Kit comes in a convenient 96-well format, with enough purified recombinant VEGFR2 enzyme and VEGFR2 substrate. The assay protocol was carried out according to manufacturer instructions.

HepG2 cells = assay: HepG2 cell viability, SRB assay; assay type: cell-based; details: Homo sapiens
Method: (§1) Hepatocellular carcinoma (HepG2) and rat heart/myocardium (H9C2) were obtained from Nawah Scientific Inc., (Mokattam, Cairo, Egypt). Cells were maintained in DMEM media supplemented with […] of streptomycin (3810–74-0), 100 units/mL of penicillin (113–98-4) and 10% of heat-inactivated fetal bovine serum in humidified, 5% (v/v) CO2 atmosphere at 37 °C.
(§2) Cell viability was assessed by SRB assay,[67]. Aliquots of 100 μL cell suspension (5 × 10^3 cells) were in 96-well plates and incubated in complete media for 24 h. […] After 72 h of drug exposure, cells were fixed by replacing media with 150 μL of 10% TCA (76–03-9) and incubated at 4 °C for 1 h. The TCA solution was removed, and the cells were washed 5 times with distilled water. Aliquots of 70 μL SRB (3520–42-1) solution (0.4% w/v) were added and incubated in a dark place at room temperature for 10 min. Plates were washed 3 times with 1% acetic acid (64–19-7) and allowed to air-dry overnight. Then, 150 μL of TRIS (77–86-1) (10 mM) was added to dissolve protein-bound SRB stain; the absorbance was measured at 540 nm using a BMG LABTECH®- FLUOstar Omegammicroplate reader (Ortenberg, Germany).

hepatic VEGF = assay: Immunohistochemistry expression of VEGF in liver tissue of irradiated mice; assay type: in vivo; details: 50 mg/kg p.o., 3 days, 8 Gy irradiated mice, vs irradiated animals
Method: (§3) Whole body γ-irradiation of mice was performed at the NCRRT using the Gamma Cell-40 biological irradiator with a Cesium-137 irradiator unit, produced by the atomic energy of Canada limited (Sheridan science and technology park, Mississauga, Ontario, Canada). Mice were exposed to an acute dose of 8 Gy according to Yoo et al..
(§4) A total 32 mice were randomly allocated into 4 groups as follows: 1- control normal [Control] mice received vehicle (10% DMSO). 2- Irradiated mice (8 Gy) received vehicle [IRR]. […] 4- Irradiated mice treated with Compound 4d (50 mg/ kg body wt./ p.o) for 3 successive days, [IRR + cmp 4d]. After 3 days, all animals were anesthetized with ketamine (80 mg/ kg), blood samples were collected via retro-orbital plexus, and then serum samples were separated after centrifugation. Heart and liver samples were dissected and rapidly washed with cool saline then heart samples were stored at -80 °C till assay time. One lobe of liver was embedded in 10% formalin for immunohistochemistry assay.
Immunohistochemical study was carried out on paraffin tissue sections prepared for the detection VEGF, liver tissue sections were incubated separately with anti- VEGF (Gene Tex, USA). The expression of each marker was visualized by the chromogen 3,3-diaminobenzidine tetrahydrochloridem (DAB, Sigma Chemical Co.).

serum catalase = assay: Serum catalase activity in 8 Gy irradiated mice; assay type: in vivo; details: 50 mg/kg p.o., 3 days
Method: as §3, §4
Serum catalase was assessed colorimetrically in all groups according to manufacturer instructions using coloring endpoint kit [Biodiagnostic co.®, Egypt].

cardiac TNF-α = assay: Cardiac TNF-α ELISA in 8 Gy irradiated mice; assay type: in vivo; details: in comparison to control irradiated group, 50 mg/kg p.o., 3 days
Method: as §3, §4
(§5) Heart tissues of mice were weighted and minced then homogenized in cold fresh lysis buffer, the homogenate was centrifuged for 5 min at 4000 rpm, and then the supernatant was used for assay. Cardiac contents of CK, TNF-α and Caspase-9 were measured according to manufacturer instructions using CK ELISA kit [catalog no. EK730963, AFG Bioscience®, USA], TNF-α ELISA kit [catalog no. […]

cardiac caspase-9 = assay: Cardiac caspase-9 ELISA in 8 Gy irradiated mice; assay type: in vivo; details: 50 mg/kg p.o., 3 days
Method: as §3, §4, §5

H9C2 cells = assay: H9C2 cardiomyocyte viability, SRB assay; assay type: cell-based, rat; details: for IC50: 72 h, SRB
Method: as §1, §2

[1] = tested on: heart creatine kinase (CK); assay: Heart creatine kinase (CK) ELISA in 8 Gy irradiated mice; assay type: in vivo; details: 50 mg/kg p.o., 3 days
Method: as §3, §4
Heart tissues of mice were weighted and minced then homogenized in cold fresh lysis buffer, the homogenate was centrifuged for 5 min at 4000 rpm, and then the supernatant was used for assay. Cardiac contents of CK, TNF-α and Caspase-9 were measured according to manufacturer instructions using CK ELISA kit [catalog no. EK730963, AFG Bioscience®, USA], TNF-α ELISA kit [catalog no. SEA626Ra, Cloud-Clone Corp®, USA] and Caspase-9 ELISA kit [catalog no. E-EL-R02054, Elabsciense®, USA], respectively.

[2] = tested on: serum lactate dehydrogenase (LDH); assay: Serum LDH in 8 Gy irradiated mice; assay type: in vivo; details: 50 mg/kg p.o., 3 days
Method: as §3, §4
Serum LDH was estimated kinetically using Spectrum® coloring assay Kit [Egyptian company for biotechnology, SAE®, Egypt]. It was carried according to manufacturer's instructions; the values were expressed as IU/ml.

mice = details: male, Swiss albino, mouse, in vivo, po, 14 days
Method: For the study of the compound 4d's oral toxicity, 30 male Swiss albino mice were used. They were randomly allocated into 5 groups; the first group of mice (n = 6) received a vehicle and was used as control, while the other four groups, each received a different acute dose of compound 4d dissolved in 0.05% Tween 80 (9005–65-6) (200, 500, 800, and 1000 mg/kg p.o.). Up to 14 days after treatment, clinical toxicity symptoms (death, more than 20% weight loss, diarrhea, lethargy, tremors, and convulsions) were noted.

[3] = 72 h, SRB, read-out: HepG2 IC50

O=S(=O)(Nc1ncccn1)c1ccc(N=c2[nH]c3nc4ccccc4nc3s2)cc1 [Compound 4e, N-(Pyrimidin-2-yl)-4-(thiazolo[4,5-b]quinoxalin-2(3H)-ylideneamino) benzene-sulfonamide]
melting point: 223 to 225 °C
IC50 (VEGFR-2): 112 ± 4.8 nM

Cc1cc(NS(=O)(=O)c2ccc(N=c3[nH]c4nc5ccccc5nc4s3)cc2)no1 [Compound 4f, N-(5-Methylisoxazol-3-yl)-4-(thiazolo[4,5-b]quinoxalin-2(3H)-ylideneamino) benzene-sulfonamide]
melting point: 186 to 188 °C
viability at 0.01 µM (HepG2 cells; 72 h, SRB): 97.6 ± 1.26%
viability at 0.1 µM (HepG2 cells; 72 h, SRB): 97.1 ± 1.06%
viability at 1 µM (HepG2 cells; 72 h, SRB): 96.6 ± 1.2%
viability at 10 µM (HepG2 cells; 72 h, SRB): 95.5 ± 3%
viability at 100 µM (HepG2 cells; 72 h, SRB): 94 ± 2.03%
IC50 (HepG2 cells; [3]): > 100 µM
IC50 (VEGFR-2): 83.3 ± 3.7 nM

Cc1ccnc(NS(=O)(=O)c2ccc(N=c3[nH]c4nc5ccccc5nc4s3)cc2)n1 [Compound 4h, N-(4-Methylpyrimidin-2-yl)-4-(thiazolo[4,5-b]quinoxalin-2(3H)-ylideneamino)-benzenesulfonamide]
melting point: 199 to 201 °C
IC50 (VEGFR-2): 217 ± 9.4 nM

CC(=O)NS(=O)(=O)c1ccc(N=c2[nH]c3nc4ccccc4nc3s2)cc1 [Compound 4b, N-((4-(Thiazolo[4,5-b]quinoxalin-2(3H)ylideneamino)phenyl)sulfonyl)-acetamide]
melting point: 245 to 247 °C
IC50 (VEGFR-2): 132 ± 5.7 nM

CNC(=O)c1cc(Oc2ccc(NC(=O)Nc3ccc(Cl)c(C(F)(F)F)c3)cc2)ccn1 [Sorafenib, reference compound]
viability at 0.01 µM (HepG2 cells; 72 h, SRB): 99.58 ± 0.94%
viability at 0.1 µM (HepG2 cells; 72 h, SRB): 98.2 ± 3.19%
viability at 1 µM (HepG2 cells; 72 h, SRB): 87.1 ± 2.02%
viability at 10 µM (HepG2 cells; 72 h, SRB): 11.3 ± 0.31%
viability at 100 µM (HepG2 cells; 72 h, SRB): 4.05 ± 0.1%
IC50 (HepG2 cells; [3]): 2.97 µM
expression of VEGF in liver tissue (hepatic VEGF): promisingly suppressed
decrease in serum catalase activity (serum catalase; vs normal): 6.19%
reduction in cardiac TNF-α (cardiac TNF-α): 31.87%
increase in cardiac caspase-9 levels (cardiac caspase-9; over normal values): 29.83%
IC50 (H9C2 cells): 33.5 µM
IC50 (H9C2 cells; listed as sorafenib): 98.1 µM
increment in CK enzymatic activity ([1]; vs normal): 35.88%
increase in serum LDH ([2]; vs normal): 106.06%

NS(=O)(=O)c1ccc(N=c2[nH]c3nc4ccccc4nc3s2)cc1 [Compound 4a, 4-(Thiazolo[4,5-b]quinoxalin-2(3H)-ylideneamino)benzenesulfonamide]
melting point: 165 to 167 °C
IC50 (VEGFR-2): 169 ± 7.4 nM

O=S(=O)(Nc1nccs1)c1ccc(N=c2[nH]c3nc4ccccc4nc3s2)cc1 [Compound 4g, N-(Thiazol-2-yl)-4-(thiazolo[4,5-b]quinoxalin-2(3H)-ylideneamino) benzene-sulfonamide]
melting point: 238 to 240 °C
IC50 (VEGFR-2): 99.8 ± 4.3 nM

N=C(N)NS(=O)(=O)c1ccc(N=c2[nH]c3nc4ccccc4nc3s2)cc1 [Compound 4c, N-Carbamimidoyl-4-(thiazolo[4,5-b]quinoxalin-2(3H)-ylideneamino) benzene-esulfonamide]
melting point: > 260 °C
IC50 (VEGFR-2): 254 ± 11 nM

COc1cc(NS(=O)(=O)c2ccc(N=c3[nH]c4nc5ccccc5nc4s3)cc2)nc(OC)n1 [Compound 4j, N-(2,6-Dimethoxypyrimidin-4-yl)-4-(thiazolo[4,5-b]quinoxalin-2(3H)-ylidene-amino)-benzenesulfonamide]
melting point: 249 to 251 °C
IC50 (VEGFR-2): 368 ± 16 nM

O=S(=O)(Nc1ccccn1)c1ccc(N=c2[nH]c3nc4ccccc4nc3s2)cc1 [Compound 4d, N-(pyridin-2-yl)-4-(thiazolo[4,5-b]quinoxalin-2(3H)-ylideneamino) benzene-sulfonamide]
viability at 0.01 µM (HepG2 cells; 72 h, SRB): 98.55 ± 0.47%
viability at 0.1 µM (HepG2 cells; 72 h, SRB): 98.32 ± 0.97%
viability at 1 µM (HepG2 cells; 72 h, SRB): 98.1 ± 1.8%
viability at 10 µM (HepG2 cells; 72 h, SRB): 6.62 ± 0.5%
viability at 100 µM (HepG2 cells; 72 h, SRB): 3.81 ± 0.24%
IC50 (HepG2 cells; [3]): 4.31 µM
IC50 (HepG2 cells; read-out: suppressing potency on HepG2 cells proliferation): 4.31 µM
expression of VEGF in liver tissue (hepatic VEGF): promisingly suppressed
serum catalase activity (serum catalase): normal catalase activity
high level of safety up to (mice): up to 1000 mg/kg
reduction in cardiac TNF-α (cardiac TNF-α): 35.75%
decrease in Caspase-9 (cardiac caspase-9; compared to control irradiated animals): 20.63%
IC50 (VEGFR-2): 61 ± 2.6 nM
times less cytotoxic than sorafenib (H9C2 cells; H9C2 cardiomyocytes): 2.93 times
CK activity compared to normal values [1]: not significantly different from normal values
CK level compared to IRR non-treated group [1]: did not significantly lower CK level
serum LDH compared to normal values [2]: non-significant deviation from normal LDH values
decrease in serum LDH ([2]; compared to sorafenib treated group): 40.83%

Cc1cc(C)nc(NS(=O)(=O)c2ccc(N=c3[nH]c4nc5ccccc5nc4s3)cc2)n1 [Compound 4i, N-(4,6-Dimethylpyrimidin-2-yl)-4-(thiazolo[4,5-b]quinoxalin-2(3H)-ylideneamino) benzenesulfonamide]
melting point: 246 to 248 °C
IC50 (VEGFR-2): 288 ± 13 nM
